PubChem BioAssay (NCI)
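In this assay, cells in 96-well plates receive the compound at five concentrations for 48 hours. Endpoints are linearly interpolated between the surrounding concentrations. Abbreviation: GI50, concentration required for 50% inhibition of growth. TGI is the concentration that stops growth completely.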 Where a SMILES comes first, the peptide text is derived from it. The star is where a group is joined. Bn = c1ccc(C*)cc1

Legend:
Experiment in all cases: growth of human tumour cells (NCI), 48 h
COLO 205 colon = system: COLO 205 colon
HT29 colon = system: HT29 colon
MALME-3M melanoma = system: MALME-3M melanoma
OVCAR-5 ovarian = system: OVCAR-5 ovarian
RXF 393 renal = system: RXF 393 renal
SK-OV-3 ovarian = system: SK-OV-3 ovarian
T-47D breast = system: T-47D breast
UACC-257 melanoma = system: UACC-257 melanoma
OVCAR-8 ovarian = system: OVCAR-8 ovarian
SF-295 CNS = system: SF-295 CNS

Structure (SMILES)	TGI (COLO 205 colon) [µM]	TGI (HT29 colon) [µM]	TGI (MALME-3M melanoma) [µM]	TGI (OVCAR-5 ovarian) [µM]	TGI (RXF 393 renal) [µM]	TGI (SK-OV-3 ovarian) [µM]	TGI (T-47D breast) [µM]	TGI (UACC-257 melanoma) [µM]	TGI (OVCAR-8 ovarian) [µM]	TGI (SF-295 CNS) [µM]	GI50 (COLO 205 colon) [µM]	GI50 (HT29 colon) [µM]	GI50 (OVCAR-8 ovarian) [µM]	GI50 (RXF 393 renal) [µM]	GI50 (SF-295 CNS) [µM]	GI50 (SK-OV-3 ovarian) [µM]	GI50 (UACC-257 melanoma) [µM]
Nc1nc(Nc2ccccc2)sc1C(=O)c1c[nH]c2ccccc12	17.1	14.6	34.5	24.9	23.1	32.8	33.3	22.6									
Clc1ccc(Cl)c(SCCCN2CCNCC2)c1	38.4	37.7	31.8	32.5	32.4	32	58.1	26.5	46	37.1							
CCOC(=O)[C@@H]1ON2O[C@@H](OC3CCCC3(c3ccccc3)c3ccccc3)C[C@H]3OC(=O)[C@@H]1C32 (stereo partly specified)	> 100	43.1		78.4	48.2	> 100	69.1	50.6	> 100	> 100							
COC(=O)C(CC(C)C)NC(=O)C(N)Cc1ccc(OCc2ccccc2)cc1 (stereo unspecified) (H-Tyr(Bn)-Leu-OMe; configuration not given here)	> 10	> 10	6.62	> 10	> 10	> 10	> 10	> 10	> 10	> 10							
O=C([CH-]C(=O)c1ccccc1)c1ccccc1.O=C([CH-]C(=O)c1ccccc1)c1ccccc1.[O]=[U+2]=[O]	4.71	7.71			6.22	12.3		35.5	> 100	4.29	2.11	2.39	3.02	2.35	1.81	4.01	7.84
NC(=O)c1ncn2c1NC(=O)CC2	> 100	> 100	> 100	> 100	> 100	> 100		> 100	> 100	> 100							
O=C(O)c1c2c(cc3c1CC1(Cc4ccccc4C1=O)C3)CCC2 (stereo unspecified)	54.6	> 69.7	76.6	> 100	> 100	> 100	> 90.7	> 100	> 100	> 100							
O=C(CCc1cccc(O)c1)NCCCNC(=O)CCc1cccc(O)c1	> 100	> 100	> 100	> 100	> 100	> 100	> 100	> 100	> 100	> 100							
N#CCCN(CCC#N)c1ccc(/C=C2\SC(=S)NC2=O)cc1Br	> 100	> 100	> 100	> 100	> 100	> 100	> 100	> 100	> 100	> 100							
O=C1c2cccc(NCCNCCO)c2C(=O)c2cccc(NCCNCCO)c21	2.09	3.54	3.65	5.67	3.89	8.45	4.26	9.4	5.97	5.77							
C[C@]1(S(=O)(=O)c2ccccc2)C[C@H]2N(Cc3ccccc3)[C@@H]1CCC21OCCO1	> 100	> 100	> 100	> 100	> 100	> 100	> 100	69.3	> 100	> 100							
CCCCC#CS(=O)(=O)C(F)(F)F	> 100	> 100	> 100	> 100	78.1	> 100		> 100	> 100	> 100							
Cc1cn2c(C)csc2c1P(=O)(OC(C)C)OC(C)C	> 100	> 100	> 100	> 100	> 100	> 100		> 100	> 100	> 100							
N#CC(=N)c1ncn(-c2ccccc2N)c1N	> 100	> 100	> 100	> 100		> 100	> 100	> 100	> 100	> 100							
O=C1CC(Sc2nc3ccc(I)cc3c(=O)n2Cc2ccccc2)C(=O)NN1 (stereo unspecified)	34.5	38.6	33.1	41.4		29.7	34.3	35.3	28.4	36.9							
COc1cc2c(cc1OC)C13CC[N+]4(C)CC5=CCOC6CC(=O)N2C1C6C5CC34[O-] (stereo unspecified)	> 100		> 100		> 100	> 100	> 100	> 100	> 100	> 100							
CCCOC(=O)NC(C)C(=O)NC(CCC(=O)NC(CCCC(N)C(=O)O)C(=O)NC(C)C(=O)O)C(=O)O (stereo unspecified)	48.7	38.4		> 100			41.7		33.9	30.9							
O=c1n(Cc2ccccc2)c(=O)n2c(=O)n(Cc3ccccc3)c(=O)n12	> 100	> 100	> 100			> 100	> 100	> 100	> 100	> 100							
CCCCC/C(C=O)=C\c1ccccc1	> 100	> 100			> 100	> 100	> 100	> 100	> 100	> 100							
CC(C)CCn1nc(N)c2nc3ccccc3nc21		> 100	> 100	> 100	> 100	> 100		> 100	> 100	> 100							
CCOC(=O)C1(C(=O)OCC)CCCN1C(=O)[C@H](CNC(=O)OC(C)(C)C)NC(=O)OCc1ccccc1	> 100	> 100		> 100	> 100	> 100	> 100	> 100		> 100							
COP(=O)(OC)C12CCOCCN1c1ccccc1C2=O (stereo unspecified)	> 100	> 100	> 100	> 100		> 100	> 100	> 100	> 100	> 100							
